Source: patent publication US7452388B2, “Compositions comprising dimeric or oligomeric ferrocenes” (Innospec Limited, priority 2000, dated 2008)
Read-outs that look alike come from different tables or passages of the source.

How the values were obtained:
[1] = Fuel stability, in-house Test Method 1; conditions: additive 20 ppm iron
[2] = Solubility testing in toluene at −30° C.
Excerpt: Solubility testing was undertaken using the estimate of Fe content from C/H/N analysis. […] This procedure assumes the products below to contain substantially only C, H and Fe. Masses of product(s) sufficient to provide the required concentration of iron as condensation products were weighed into screw-cap vials and made up to 10.00 g with toluene. The samples were capped, shaken or swirled until homogenous then sealed using Parafilm™. The vials were then kept in an ethylene glycol/water filled bath held at −30° C. and periodically inspected for the appearance of solids or separation of liquid phases. After at least one week solids were separated by rapid filtration and soluble products isolated by removal of solvent under vacuum. Following analysis of the solids, maximum and minimum solubilities were estimated from the mass balance.

[3] = Viscosity of 2.5 wt % iron solutions in toluene (Bohlin CVO rheometer); type: physicochemical; conditions: toluene solution at 2.5 wt % Fe
Description: Viscosities of 2.5 wt % iron solutions were determined using a Bohlin Instruments CVO rheometer using a 4° 40 mm cone and plate at shear rates of either 2 Pa or 0.5 Pa.

[4] = toluene, −30° C., at least one week

Molecule	Solubility at −30° C., 2.5 wt % Fe (appearance) [2, 4]	Viscosity at −30° C. (mPas) [3]	Solubility at −30° C., 2.5 wt % Fe (appearance) [2]	Solubility at −30° C., 5.0 wt % Fe (appearance) [2]	further results
Iron tris(2-ethylhexanoate) [Octanoate]	–	–	–	–	fuel stability (conclusion) [1]: markedly lower stability
[Fe+2].[Fe+2].c1cc[cH-]c1.c1cc[cH-]c1.c1ccc(CC([c-]2cccc2)[c-]2cccc2)cc1 [Compound 9, 1,1-diferrocenyl phenyl methane]	Clear	4.3 mPas	–	–	Solubility at −30° C., 5.0 wt % Fe (appearance) [2, 4]: Clear
1,1-diferrocenyl cyclohexane [Compound 11]	Clear	4.8 mPas	–	–	Solubility of Fe as product ([2]; toluene, −30° C.): ~4.9 wt %; Solubility at −30° C., 5.0 wt % Fe (appearance) [2, 4]: Powder
1,1-diferrocenylpentane [Compound 7]	–	5.4 mPas	Clear	Clear	–
O=C1CCCC(=O)C1 [Compound 12, 1,3-Cyclohexanedione]	–	–	Clear	Crystals	Solubility of Fe as product [2]: 3.6 to 4.1 wt % by mass balance
1,1-diferrocenyl 2-ethylhexane [Compound 4]	–	–	Clear	Clear	–
CC(=O)CCC(C)=O [Compound 15, Acetonyl acetone]	–	–	Powder	Powder	–
CC(C)C([c-]1cccc1)[c-]1cccc1.[Fe+2].[Fe+2].c1cc[cH-]c1.c1cc[cH-]c1 [Compound 5, 1,1-diferrocenyl-2-methyl propane]	Clear	–	–	–	–
